# Data reported in ChEMBL document CHEMBL1154260, “Synthesis and SAR of alkanediamide-linked bisbenzamidines with anti-trypanosomal and anti-pneumocystis activity” (Bioorg Med Chem Lett, 2009).
# Key:
# [1] = tested on: Trypanosoma brucei rhodesiense; assay: Antitrypanosomal activity against Multidrug-resistant Trypanosoma brucei rhodesiense KETRI 243; type: functional, organism-based
# [2] = tested on: Nucleic Acid; assay: Binding affinity to poly(dA-dT)DNA assessed as change in melting temperature; type: nucleic-acid assay
# [3] = tested on: Trypanosoma brucei brucei; assay: Antitrypanosomal activity against pentamidine-sensitive Trypanosoma brucei brucei LAB 110 EATRO; type: functional, organism-based
# [4] = Selectivity index, ratio of IC50 for human A549 cells to IC50 for Trypanosoma brucei; type: toxicity, cell-based; conditions: read-out: Ratio IC50
# [5] = tested on: Nucleic Acid; assay: Binding affinity to DNA assessed as change in melting temperature; type: nucleic-acid assay
# [6] = Selectivity index, ratio of IC50 for human A549 cells to IC50 for Pneumocystis carinii
# [7] = tested on: A549; assay: Cytotoxicity against human A549 cells; type: cell-based
# [8] = tested on: Pneumocystis carinii; assay: Antipneumocystis activity against Pneumocystis carinii; type: functional, organism-based
SMILES,IC50 [1] [µM],ΔTm [2] [°C],IC50 [3] [µM],selectivity ratio [4],ΔTm [5] [°C],Ratio IC50 [6],IC50 [7] [µM],IC50 [8] [µM]
N#Cc1ccc(NC(=O)CCCC(=O)Nc2ccc(C#N)cc2)cc1,7.9,7.5,6.5,–,–,–,–,–
N=C(N)c1ccc(NC(=O)CCCCC(=O)Nc2ccc(C(=N)N)cc2)cc1,0.002,7.5,0.003,18900,11.4,596500,1190,–
N=C(N)c1ccc(NC(=O)CCCC(=O)Nc2ccc(C(=N)N)cc2)cc1,0.096,7.5,0.009,–,11.4,–,2280,0.003
NC(=O)c1ccc(NC(=O)CCCCC(=O)Nc2ccc(C(N)=O)cc2)cc1,1.1,7.5,2.8,–,–,–,–,> 100
N=C(N)c1ccc(NC(=O)CCCCCCC(=O)Nc2ccc(C(=N)N)cc2)cc1,0.001,13.2,0.003,18900,13.2,–,176,1.95
N=C(N)c1ccc(NC(=O)CCC(=O)Nc2ccc(C(=N)N)cc2)cc1,2.19,7.5,9,–,11.4,–,> 44.2,0.442
N=C(N)c1ccc(NC(=O)CCCCC(=O)Nc2cccc(C(=N)N)c2)cc1,0.007,7.5,0.012,18900,–,–,> 227,2.27
N=C(N)c1cccc(NC(=O)CCCCC(=O)Nc2cccc(C(=N)N)c2)c1,0.021,13.8,0.041,–,13.8,–,–,33.7
N=C(N)c1ccc(OCCCCCOc2ccc(C(=N)N)cc2)cc1 [PENTAMIDINE],[…],21.6,–,–,–,–,–,–
N=C(N)c1ccc(NC(=O)CCCCCC(=O)Nc2ccc(C(=N)N)cc2)cc1,0.002,7.5,0.002,18900,–,–,> 237,2.37
NC(=O)c1cccc(NC(=O)CCCCC(=O)Nc2cccc(C(N)=O)c2)c1,1.97,7.5,–,–,–,–,> 261,> 100
N=C(N)c1ccc(NC(=O)CCCCCCCCCCC(=O)Nc2ccc(C(=N)N)cc2)cc1,0.007,7.5,0.008,–,–,–,18,3.07
N=C(N)c1ccc(NC(=O)CCCCCCCCC(=O)Nc2ccc(C(=N)N)cc2)cc1,0.004,7.5,0.002,18900,–,–,249,4.28
N=C(N)c1ccc(NC(=O)CCCCCCCC(=O)Nc2ccc(C(=N)N)cc2)cc1,0.24,7.5,0.4,–,–,–,2.87,2.44
